Results from US6846842B2, “Pyruvate ester composition and method of use for resuscitation after events of ischemia and reperfusion” (Beth Israel Deconess Medical Center, Inc., priority 1999, dated 2005).

Key:
[1] = Stability and enolization of pyruvate esters in Ringer's solution (NMR, ultraviolet absorption); assay type: physicochemical; conditions: for absorbance: 28 mM solution, 300-340 nm; for average absorption, corrected for blanks: 1 mMolar solution, 230-260 nm
Protocol: Specifically, the preferred embodiment of this “pyruvated” Ringer's solution for use in NMR, stability, and subsequent biological studies is shown in Table 2.
Following the procedural recommendations for analysis of Margolis et al. (1986) with respect to scanning times and frequencies on a 400 MHz spectrometer operating in pulse. […] The ultraviolet absorptions of these solutions were also measured periodically over the 230-260 nm range and 300-340 nm span, where changes in enol formation become evident, and provided confirmatory evidence about the distinctly different salvation properties of pyruvate ester analogs in comparison to pyruvate salts applied in the various methods of prior art.
The experimental sequence in which to establish the greater utility of the pyruvate derivatives in this invention follows along the same lines as the comparative spectral experiments just described.
When 28 mM solutions were examined in a similar manner at 300-340 nm, the absorbance of pyruvate remained unchanged before and after calcium addition at a value of 0.03, while the ethyl pyruvate solutions become noticeably straw colored to the naked eye, rising in absorbance from 0.07 to 0.85. The yellow coloration and increases in spectrophotometric absorption in the ultraviolet region confirms the formation of a 1,3-conjugated ketone system, as would result from the enolization of ethylpyruvate under conditions which appear not to enolize pyruvic acid.

[2] = tested on: ischemia/reperfusion mucosal injury, small intestine; test: Rat model of superior mesenteric artery occlusion (ischemia/reperfusion mucosal injury and barrier dysfunction); assay type: in vivo, male Sprague-Dawley rats; conditions: for mucosal thickness (MT) / villous height (VH): 28 mM infusate, mean ± SEM, n=6; for mucosal permeability (FITC-dextran, everted gut sac): during reperfusion
Protocol: The model system and calculation parameters are illustrated in FIG. 3.
Heart rate and mean arterial blood pressure were measured via a right carotid arterial catheter. The left internal jugular vein was cannulated for intravenous infusions.
Controls (n=6) received lactated Ringer's solution (lactate, […], 111.5 ml/kg/hr infusion, 1.5 ml/kg bolus prior to ischemia, and a 3.0 ml/kg bolus prior to reperfusion). Experimental groups (n=6 each) received similar volumes (3 ml) of either pyruvate, Na salt (28 mM) or pyruvate ethyl ester (28 mM), prepared in accordance with the method of this invention as shown in Table 2 and at a dosage rate equivalent to 10 mg/kg/hr. Small intestinal mucosal-to-serosal permeability (CMS, nl/min/cm^2) of FITC- dextran (mw=4 kDA) was evaluated using an everted gut sac technique as previously described by Wattanasirichaigoon (1999). Permeability was measured at baseline, after 30 and 60 minutes of ischemia ([…]) respectively, and after 30 and 60 minutes of reperfusion (R30 and R60, respectively). Histologic samples at baseline, 160 and R60 were evaluated for villous height (VH, μ) and mucosal thickness (MT, μ). Mucosal injury grade was determined according to the method described by Chiu et al. (1970), scored as in Table 3, as follows:
Data were summarized as means±standard error of the mean. Significances of differences were determined using Student's t-test. Differences were considered significant for p<0.05.

[3] = concentrations of 1 Mol/liter or less, standing for 48 hrs; cited from earlier work
[4] = I60 (after 60 minutes of ischemia)
[5] = R60 (after 60 minutes of reperfusion)

Row | Molecule | absorbance ([1]; after calcium addition) | absorbance ([1]; before calcium addition) | average absorption, corrected for blanks ([1]; absence of calcium, pH 7.2) | average absorption, corrected for blanks ([1]; after addition of calcium) | stability of aqueous solution ([1]; in the presence of calcium salts (Ringer's solution)) | mucosal thickness (MT) ([2]; Baseline) [μ] | villous height (VH) ([2]; Baseline) [μ] | mucosal injury score ([2]; Chiu grade 0-5 (Table 3), FIG. 5) | cytoprotection as judged by the extent of permeability increase ([2]; FIG. 4) | mucosal thickness (MT) [2, 4] [μ] | villous height (VH) [2, 4] [μ] | mucosal thickness (MT) [2, 5] [μ] | villous height (VH) [2, 5] [μ] | villous height and mucosal thickness ([2]; during both ischemia and reperfusion, p<0.01) | mucosal permeability (FITC-dextran, everted gut sac) ([2]; FIG. 4) | dimer (4-hydroxy-4-methyl-2-ketoglutaric acid) formed [3] | hydrate formed [3]
1 | CCOC(=O)C(C)=O [Ethyl pyruvate (4), ethyl pyruvate] | 0.85 | 0.07 | 0.2 | 0.41 | more stable aqueous solution than sodium pyruvate | 583 | 486 ± 12 | significant diminution | significant trend towards effecting earlier and greater cytoprotection | 466 | 381 ± 24 | 352 | 296 ± 26 | significantly maintained | significantly decreased | – | –
2 | CC(=O)C(=O)[O-].[Na+] [Na Pyruvate (1), sodium pyruvate] | – | – | – | – | – | – | – | – | – | – | – | – | – | – | significantly decreased | 20-25% | 6-10%
3 | CC(=O)C(=O)O [pyruvic acid, reference compound] | – | – | 0.15 | – | – | – | – | – | – | – | – | – | – | – | – | – | –
4 | Lactate [reference compound] | – | – | – | – | – | 553 ± 34 | 470 ± 30 | – | – | 298 ± 32 | 244 ± 20 | 141 ± 22 | 130 ± 25 | – | – | – | –
